US20180202936A1, “Modified Hydrocyanine Dyes for the Detection of Reactive Oxygen Species” (Life Technologies Corporation, priority 2010, published 2018)

Experiments:
Type in all cases: cell-based
[1] = test system: BPAE cells; test: Specificity of ROS signal: superoxide scavenger in menadione-treated BPAE cells (Example 8); settings: 100 μM MnTBAP, last 30 min; 100 μM Menadione 1 h; Far Red ROS Sensor readout
Experimental: (§1) BPAE cells or RAW macrophages were plated in 96-well plates. BPAE cells were treated with or without 100 μM Menadione for 1 h. 100 μM of superoxide scavenger, MnTBAP was added to some of the control and menadione-treated wells for the last 30 min of incubation. RAW cells were treated with or without 500 ng/mL of Lipopolysachharide (LPS) with or without Diphenylenelodinium (DPI), an NADPH oxidase inhibitor.

[2] = test system: RAW macrophages; test: Specificity of ROS signal: NADPH oxidase inhibitor in LPS-treated RAW cells (Example 8); settings: 500 ng/mL LPS; Far Red ROS Sensor readout
Experimental: as §1

[3] = test system: Live Jurkat cells; test: Flow cytometry of ROS formation in live Jurkat cells (Example 4); settings: 100 μM Menadione or 500 nM PMA, 1 hr; 5 μM Far Red ROS Sensor 30 min; 635 nm excitation, emission 650-670 nm
Experimental: Live Jurkat cells were treated with or without either 100 μM Menadione or 500 nM phorbol myristate acetate (PMA) for 1 hr. The cells were stained with 5 μM Far Red ROS Sensor and Hoechst 33342 for 30 mins. The cells were washed 3 times with PBS and then analyzed at approximately 400 events per second on a BD® LSR II flow cytometer (Beckton Dickinson, Franklin Lakes, N.J.) with 635 nm laser excitation and fluorescence emission collected from 650-670 nm.

[4] = test system: HepG2 cells; test: Multiplexed measurement of oxidative stress, cytotoxicity and apoptosis in HepG2 cells (Example 10); settings: 50 μM Nefazodone 24 h
Experimental: For the last 30 min of Nefazodone treatment, the cells were either stained with 5 μM Far Red ROS Sensor and 20 nM Image-IT® DEAD Green™ viability stain (Life Technologies Corp., Carlsbad, Calif.), FIG. 10a) or 5 μM Far Red ROS Sensor and 5 μM fluorogenic CaspaGreen caspase substrate (FIG. 10b). […] Image-iT® DEAD Green™ measures plasma membrane permeability, a marker for cytotoxicity.

**Q.** Which “effect on ROS caused by Menadione” value [1] does the source give for `O=C(O)c1ccc(/C2=C3\C=CC(=N3)/C(c3ccc(C(=O)O)cc3)=c3/cc/c4[n]3[Mn]([Cl])[n]3c2ccc3/C(c2ccc(C(=O)O)cc2)=C2/C=CC(=N2)\C=4c2ccc(C(=O)O)cc2)cc1` [MnTBAP] here?
**A.** inhibited ROS

**Q.** How did the “effect on ROS caused by LPS” value [2] turn out when `c1ccc2c(c1)[I+]c1ccccc1-2` [DPI, Diphenylenelodinium] was run?
**A.** inhibited ROS

**Q.** Which “ROS formation after treatment” value [3] does the source give for `CCCCCCCCCCCCCC(=O)O[C@@H]1[C@@H](C)[C@@]2(O)[C@@H](C=C(CO)C[C@]3(O)C(=O)C(C)=C[C@@H]23)[C@@H]2C(C)(C)[C@]12OC(C)=O` [PMA, phorbol myristate acetate] here?
**A.** increase in ROS formation

**Q.** How did the “ROS formation after treatment” value [3] turn out when `CC1=CC(=O)c2ccccc2C1=O` [Menadione] was run?
**A.** increase in ROS formation

**Q.** Which “apoptosis (fluorogenic CaspaGreen caspase substrate)” value ([4]; 5 μM CaspaGreen caspase substrate) does the source give for `CCc1nn(CCCN2CCN(c3cccc(Cl)c3)CC2)c(=O)n1CCOc1ccccc1` [Nefazodone] here?
**A.** increased nuclear staining

**Q.** What about the “oxidative stress (Far Red ROS Sensor)” value ([4]; 5 μM Far Red ROS Sensor) of the same molecule?
**A.** causes oxidative stress
